One data set concerns the target T1, human PiT2 (Homo sapiens, UniProt Q08357).
T1 construct: expressed in transfected cells; host or cells: CHO cells, transient transfection with Fugene HD
T1 sequence (Q08357 1-652): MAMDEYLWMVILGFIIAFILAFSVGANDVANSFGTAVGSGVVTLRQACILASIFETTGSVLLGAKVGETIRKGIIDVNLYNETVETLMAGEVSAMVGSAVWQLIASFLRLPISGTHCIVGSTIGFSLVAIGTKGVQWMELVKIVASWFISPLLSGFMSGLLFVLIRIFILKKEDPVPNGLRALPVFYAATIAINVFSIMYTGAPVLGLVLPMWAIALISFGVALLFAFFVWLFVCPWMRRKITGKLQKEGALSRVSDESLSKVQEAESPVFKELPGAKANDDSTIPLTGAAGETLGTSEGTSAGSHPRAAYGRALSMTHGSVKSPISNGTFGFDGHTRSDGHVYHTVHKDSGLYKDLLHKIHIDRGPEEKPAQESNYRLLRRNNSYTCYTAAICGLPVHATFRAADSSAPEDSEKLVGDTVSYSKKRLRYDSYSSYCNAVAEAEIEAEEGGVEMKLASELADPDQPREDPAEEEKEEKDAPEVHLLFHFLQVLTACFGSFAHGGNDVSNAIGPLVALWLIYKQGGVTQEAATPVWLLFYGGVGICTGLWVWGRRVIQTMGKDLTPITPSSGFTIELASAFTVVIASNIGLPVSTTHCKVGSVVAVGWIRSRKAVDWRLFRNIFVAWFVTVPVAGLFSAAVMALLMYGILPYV
Description: 33PO4 uptake inhibition in CHO cells expressing human PiT2. It counts as cell-based. Particulars: CHO cells transiently expressing human PiT2, pH 6.5. As to the method:
(§1) For transient expression, human NaPi-IIb expression plasmids, human PiT1 expression plasmids, human PiT2 expression plasmids, and Fugene HD Transfection (Promega Corporation) were added to CHO cells using a 96-well plate, and the plate was incubated in a C02 incubator for 16 hours. The medium was replaced with buffer A (145 mM choline chloride, 3 mM KCl, 1 mM CaCl2), 0.5 mM MgCl2, 5 mM glucose, 5 mM MES, (pH 6.5)), and then replaced with buffer B (145 mM NaCl, 3 mM KCl, 1 mM CaCl2, 0.5 mM MgCl2, 5 mM glucose, 5 mM MES (pH 6.5)) to which a test compound was added at the final concentration of 0.01, 0.03, 0.1, 0.3, 1, 3, 10, or 30 μM, buffer A to which DMSO was added, or buffer B to which DMSO was added. After a certain time, a 1/20 amount of buffer A containing ^33PO4 (PerkinElmer Japan G. K.) was added and reacted at room temperature. After washing with ice-cooled buffer A, a liquid scintillator (MicroScint™-20, item number 6013621, PerkinElmer Japan G.K.) was added, and the ^33PO4 uptake amount was measured with the top count (Top Count NXT, PerkinElmer Japan G.K.). The inhibition rate was determined by the following formula. Here, a certain time was set to 10 minutes. […]

In data set [1] the test system is PC1 conditional knockout mice (PKD model). Kind of data set: Suppression of increase in renal volume and decrease in renal function in PC1 conditional knockout mice. It counts as in vivo, mouse. As to the method:
The PC1 conditional knockout mice, a PKD model, were used to evaluate the effects of tolvaptan and compound 4 in Test Example 1 on (a) renal volume, (b) body weight, and (c) urine volume in PC1 conditional knockout mouse.
Tamoxifen was orally administered to PC1 conditional knockout mice at a dose of 3 mg/kg for 3 days from day 21 after birth. The PC1 conditional knockout mice (5 weeks of age at the start of this test) were grouped into 3 groups of 15 mice each. Compound 4 or tolvaptan was administered as a single agent to the test compound administration group. The administration period was 16 weeks, and they were administered subcutaneously once daily. Compound 4 was administered at 33-40 mg/kg per dose and tolvaptan was administered at 25-30 mg/kg per dose. Compound 4 and tolvaptan were administered after dissolved in 50% DMSO/50% glycerol. A group of mice to which tamoxifen was not administered was provided as a normal control group (Normal Control) (N=7). The 50% DMSO/50% glycerol was administered to the normal control group and the Vehicle group of PC1 conditional knockout mice at 1 mL/kg.
The left renal volume (renal volume (mL)) of mice was calculated by the following formula using echography 16 weeks after the start of administration of the test compound.
After that, euthanasia treatment was performed. In addition, the body weight (Body weight (g)) of mice was measured every 7 days after the start of administration of the test compound. Furthermore, the volume of urine (Urine volume (mL/day)) was calculated from the specific gravity and measured weight of urine 16 weeks after the start of administration of the test compound.

A further data set addresses T2, human PiT1 (Homo sapiens, UniProt Q8WUM9).
T2 construct: expressed in transfected cells; host or cells: CHO cells, transient transfection with Fugene HD
T2 sequence (Q8WUM9 1-679): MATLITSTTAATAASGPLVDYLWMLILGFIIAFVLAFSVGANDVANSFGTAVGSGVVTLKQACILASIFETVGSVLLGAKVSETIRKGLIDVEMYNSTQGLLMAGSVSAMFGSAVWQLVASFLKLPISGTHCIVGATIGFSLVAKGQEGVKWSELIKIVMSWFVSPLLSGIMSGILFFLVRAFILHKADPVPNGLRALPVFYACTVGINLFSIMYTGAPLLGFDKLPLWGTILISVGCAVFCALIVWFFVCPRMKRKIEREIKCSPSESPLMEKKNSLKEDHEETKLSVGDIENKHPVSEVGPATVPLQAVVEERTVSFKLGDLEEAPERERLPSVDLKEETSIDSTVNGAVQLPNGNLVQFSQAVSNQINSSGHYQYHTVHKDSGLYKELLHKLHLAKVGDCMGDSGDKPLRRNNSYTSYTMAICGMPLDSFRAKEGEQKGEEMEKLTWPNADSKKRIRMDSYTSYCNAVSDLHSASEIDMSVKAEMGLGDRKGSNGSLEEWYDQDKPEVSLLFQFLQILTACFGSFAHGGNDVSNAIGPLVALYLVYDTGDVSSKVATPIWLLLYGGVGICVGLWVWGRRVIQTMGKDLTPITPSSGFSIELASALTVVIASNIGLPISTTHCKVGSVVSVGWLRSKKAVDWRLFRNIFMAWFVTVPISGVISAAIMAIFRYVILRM
Kind of data set: 33PO4 uptake inhibition in CHO cells expressing human PiT1. Type of data set: cell-based. Particulars: CHO cells transiently expressing human PiT1, pH 6.5. As to the method: as §1

Where only a bound is given, the exact number is not on record here.

As for `CCCN([C@H]1CC[C@H](C(=O)[O-])CC1)S(=O)(=O)c1cccc(C(=O)Nc2sc3c(c2C(=O)Nc2ccc(CCCc4ccc(C(=O)[O-])cc4)cc2)CCCC3)c1.[Na+].[Na+]` [Compound 4, Disodium; 4-[3-[4-[[2-[[3-[(4-carboxylatocyclohexyl)-propylsulfamoyl]benzoyl]ami-no]-4,5,6,7-tetrahydro-1-benzothiophene-3-carbonyl]amino]phenyl]pro-pyl]benzoic acid], the IC50 at human PiT2 and at human PiT1 was greater than 30 µM each time. Also, the “Body weight (weight loss)” value in data set [1] (16 weeks administration, compared to tolvaptan) is reported as “less weight loss”. Further, the Urine volume result in data set [1] (16 weeks after start of administration, compared to tolvaptan) was “no increase in urine volume”. For the same compound, in data set [1] (33-40 mg/kg s.c. once daily, 16 weeks), the “Suppression effect on decrease in renal function” value is reported as “suppression effect”. Further, in data set [1] (33-40 mg/kg s.c. once daily, 16 weeks, left renal volume by echography), the “Suppression effect on increase in renal volume” value is reported as “suppression effect”.

Values taken from patent publication US20250302833A1, “PHARMACEUTICAL COMPOSITION FOR TREATING OR PREVENTING CYSTIC DISEASE” (CHUGAI SEIYAKU KABUSHIKI KAISHA, priority 2022, published 2025).
